Data taken from ChEMBL document CHEMBL3739399, “Discovery of Indazole Derivatives as a Novel Class of Bacterial Gyrase B Inhibitors” (ACS Med Chem Lett, 2015).
Values after ≈ are worked out from the molar mass of the structure shown.

Experiments:
Enterococcus faecalis = assay: Antibacterial activity against Enterococcus faecalis for 18 to 20 hrs by broth microdilution method; assay type: functional
DNA gyrase subunit B = DNA gyrase subunit B (Staphylococcus aureus, UniProt P0A0K8); assay: Inhibition of Staphylococcus aureus Gyrase B ATPase activity by fluorescence analysis
Enterococcus faecium = assay: Antibacterial activity against Enterococcus faecium for 18 to 20 hrs by broth microdilution method; assay type: functional
Staphylococcus aureus [1] = assay: Antibacterial activity against methicillin and ciprofloxacin-resistant Staphylococcus aureus 1721 for 18 to 20 hrs by broth microdilution method; assay type: functional
[2] = Inhibition of Staphylococcus aureus topoisomerase 4 by fluorescence analysis
Staphylococcus aureus [3] = assay: Antibacterial activity against methicillin-sensitive Staphylococcus aureus 42 for 18 to 20 hrs by broth microdilution method; assay type: functional
Staphylococcus aureus [4] = assay: Antibacterial activity against methicillin-resistant Staphylococcus aureus 1118 for 18 to 20 hrs by broth microdilution method; assay type: functional
Streptococcus pneumoniae [5] = assay: Antibacterial activity against Streptococcus pneumoniae for 18 to 24 hrs by broth microdilution method; assay type: functional
Streptococcus pneumoniae [6] = assay: Antibacterial activity against Streptococcus pneumoniae 402 infected in sc dosed mouse assessed as reduction in 2 log CFU in lung compound administered as BID for 1 day measured 24 hrs after last dose; assay type: functional
Streptococcus pneumoniae [7] = assay: Antibacterial activity against Streptococcus pneumoniae 402 infected in sc dosed mouse assessed as reduction in 3 log CFU in lung compound administered as BID for 1 day measured 24 hrs after last dose; assay type: functional
Staphylococcus aureus [8] = assay: Antibacterial activity against Staphylococcus aureus 1118 infected in sc and iv dosed mouse assessed as septicemia compound administered 1 hr post-infection twice for 1 day measured for 7 days; assay type: functional; details: read-out: PD50
[9] = Volume of distribution at steady state in mouse at 2 mg/kg, iv by LC-MS/MS analysis; assay type: ADME, organism-based; details: in vivo, read-out: Vdss
[10] = Half-life in mouse at 2 mg/kg, iv by LC-MS/MS analysis; assay type: ADME, organism-based; details: in vivo
[11] = Clearance in mouse at 2 mg/kg, iv by LC-MS/MS analysis; assay type: ADME, organism-based; details: in vivo
Mus musculus = assay: Dose-normalized AUC in mouse at 2 mg/kg, iv by LC-MS/MS analysis; assay type: ADME, organism-based; details: in vivo
[12] = Log D of compound at pH 7.4; details: buffer

logD [12]	SMILES	MIC (Enterococcus faecalis)	IC50 (DNA gyrase subunit B)	MIC (Enterococcus faecium)	MIC (Staphylococcus aureus [1])	IC50 [2]	MIC (Staphylococcus aureus [3])	MIC (Staphylococcus aureus [4])	MIC (Streptococcus pneumoniae [5])	ED (Streptococcus pneumoniae [6])	ED (Streptococcus pneumoniae [7])	ED50 (Staphylococcus aureus [8])	Vd [9]	half-life [10]	clearance [11]	AUC/dose (Mus musculus)
	CCCc1cccc2c(-c3cnc(-c4cnc(C(=O)O)c(O)c4)s3)n[nH]c12	0.125 µg/mL (≈ 0.329 µM)	11 nM	0.125 µg/mL (≈ 0.329 µM)	0.125 µg/mL (≈ 0.329 µM)	60 nM	0.125 µg/mL (≈ 0.329 µM)	0.06 µg/mL (≈ 0.158 µM)	0.5 µg/mL (≈ 1.31 µM)							
	CO[C@@H]1[C@@H](OC(N)=O)[C@@H](O)[C@H](Oc2ccc3c(O)c(NC(=O)c4ccc(O)c(CC=C(C)C)c4)c(=O)oc3c2C)OC1(C)C [NOVOBIOCIN]							0.125 µg/mL (≈ 0.204 µM)	2 µg/mL (≈ 3.26 µM)	>100 mg/kg	>100 mg/kg	10 mg/kg				
	CCCc1cccc2c(-c3cnc(-c4cnc(C(=O)OC)c(O)c4)s3)n[nH]c12	1 µg/mL (≈ 2.54 µM)	< 8 nM	2 µg/mL (≈ 5.07 µM)	2 µg/mL (≈ 5.07 µM)	68 nM	1 µg/mL (≈ 2.54 µM)	1 µg/mL (≈ 2.54 µM)	1 µg/mL (≈ 2.54 µM)							
	COc1c(N2C[C@@H]3CCCN[C@@H]3C2)c(F)cc2c(=O)c(C(=O)O)cn(C3CC3)c12 [MOXIFLOXACIN]								0.06 µg/mL (≈ 0.149 µM)	28.6 mg/kg	50.8 mg/kg					
	CCCc1cccc2c(-c3cnc(-c4ccc(C(=O)OC)nc4)s3)n[nH]c12	> 8 µg/mL	29 nM	> 8 µg/mL	2 µg/mL (≈ 5.28 µM)	> 10000 nM	0.5 µg/mL (≈ 1.32 µM)	1 µg/mL (≈ 2.64 µM)	0.125 µg/mL (≈ 0.33 µM)							
	CCCOc1nccc2c(-c3cnc(-c4cnc(C(=O)O)cc4C)s3)n[nH]c12	4 µg/mL (≈ 10.1 µM)	52 nM	8 µg/mL (≈ 20.2 µM)	8 µg/mL (≈ 20.2 µM)		8 µg/mL (≈ 20.2 µM)	8 µg/mL (≈ 20.2 µM)	0.125 µg/mL (≈ 0.316 µM)							
	CCCc1cccc2c(-c3cnc(-c4ccc(C(=O)O)c(F)c4)s3)n[nH]c12	0.06 µg/mL (≈ 0.157 µM)	< 8 nM	0.06 µg/mL (≈ 0.157 µM)	0.125 µg/mL (≈ 0.328 µM)	1300 nM	0.125 µg/mL (≈ 0.328 µM)	0.125 µg/mL (≈ 0.328 µM)	0.25 µg/mL (≈ 0.655 µM)	63 mg/kg	97.6 mg/kg		1.7 L/kg	120 min	42 mL/min/kg	0.397 µg·h/mL/mg/kg
	CCOc1nccc2c(-c3cnc(-c4cnc(C(=O)O)cc4C)s3)n[nH]c12	0.25 µg/mL (≈ 0.655 µM)	< 8 nM	0.5 µg/mL (≈ 1.31 µM)	0.5 µg/mL (≈ 1.31 µM)		0.25 µg/mL (≈ 0.655 µM)	0.5 µg/mL (≈ 1.31 µM)	0.125 µg/mL (≈ 0.328 µM)							
	CCCc1c(O)ccc2c(-c3cnc(-c4cnc(C(=O)O)c(O)c4)s3)n[nH]c12	0.125 µg/mL (≈ 0.315 µM)	13 nM	0.25 µg/mL (≈ 0.631 µM)	2 µg/mL (≈ 5.05 µM)		1 µg/mL (≈ 2.52 µM)	4 µg/mL (≈ 10.1 µM)	0.25 µg/mL (≈ 0.631 µM)							
	O=C(O)c1ccc(-c2ncc(-c3n[nH]c4c(CC5CC5)cccc34)s2)cn1	0.125 µg/mL (≈ 0.332 µM)	13 nM	4 µg/mL (≈ 10.6 µM)	0.1 µg/mL (≈ 0.266 µM)		0.05 µg/mL (≈ 0.133 µM)	0.05 µg/mL (≈ 0.133 µM)	0.5 µg/mL (≈ 1.33 µM)							
	CCCc1cccc2c(-c3cnc(-c4ccnc(C(=O)O)c4)s3)n[nH]c12	> 8 µg/mL	11 nM	> 8 µg/mL	> 8 µg/mL	> 1000 nM	> 8 µg/mL	> 8 µg/mL	1 µg/mL (≈ 2.74 µM)							
	C=CCc1cccc2c(-c3cnc(-c4ccc(C(=O)O)nc4)s3)n[nH]c12	0.125 µg/mL (≈ 0.345 µM)	9 nM	0.125 µg/mL (≈ 0.345 µM)	0.06 µg/mL (≈ 0.166 µM)		0.03 µg/mL (≈ 0.0828 µM)	0.03 µg/mL (≈ 0.0828 µM)	0.25 µg/mL (≈ 0.69 µM)							
	CCCOc1nccc2c(-c3cnc(-c4ccc(COP(=O)([O-])[O-])nc4)s3)n[nH]c12.[Na+].[Na+]	> 8 µg/mL	< 8 nM	8 µg/mL	> 8 µg/mL		8 µg/mL	8 µg/mL	1 µg/mL							
	CCCc1c(OC)ccc2c(-c3cnc(-c4ccc(C(=O)O)c(F)c4)s3)n[nH]c12	0.03 µg/mL (≈ 0.0729 µM)	15 nM	0.03 µg/mL (≈ 0.0729 µM)	0.125 µg/mL (≈ 0.304 µM)		0.06 µg/mL (≈ 0.146 µM)	0.125 µg/mL (≈ 0.304 µM)	0.125 µg/mL (≈ 0.304 µM)	60.6 mg/kg	103.7 mg/kg		0.32 L/kg	18.6 min	19 mL/min/kg	0.893 µg·h/mL/mg/kg
	CCOc1cccc2c(-c3cnc(-c4ccc(C(=O)O)c(F)c4)s3)n[nH]c12	1 µg/mL (≈ 2.61 µM)	< 8 nM	2 µg/mL (≈ 5.22 µM)	1 µg/mL (≈ 2.61 µM)		0.5 µg/mL (≈ 1.3 µM)	0.5 µg/mL (≈ 1.3 µM)	1 µg/mL (≈ 2.61 µM)							
0.9	CCCn1c(=O)ccc2c(-c3cnc(-c4ccc(C(=O)O)nc4)s3)n[nH]c21		< 8 nM			56 nM	> 32 µg/mL		0.06 µg/mL (≈ 0.157 µM)							
